# Source: the supplement of paper PMC6045584
# ± gives the standard deviation of the averaged measurements.
# How the values were obtained:
# [1] = compound: CCn1c(C(=O)N(C2CC2)C2CC2)cc2c3c(ncn3C)c(Nc3cc(C)n(C)n3)nc21; experiment: surviving fraction relative to DMSO-only wells; higher = less growth inhibition; conditions: exposure time: 5 days
# How it was run: (§1)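 Inhibitors at 0.5, 1, 5, 10, 50, 100, 500 and 1000 nM were applied continuously for five days to tumour cell lines seeded in log phase at 250–500 cells per well in 384-well plates 24 hours earlier. Viability was measured by CellTiter-Glo luminescence and expressed as surviving fraction relative to the median of DMSO-only wells. Luminescence was taken after 10 minutes at room temperature.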
# ABIRATERONE = compound: C[C@]12CC[C@H](O)CC1=CC[C@@H]1[C@@H]2CC[C@]2(C)C(c3cccnc3)=CC[C@@H]12 [ABIRATERONE]; experiment: as above; conditions: exposure time: 5 days
# How it was run: as §1
Test System,surviving fraction ([1]; 0.5 nM),surviving fraction ([1]; 1 nM),surviving fraction ([1]; 5 nM),surviving fraction ([1]; 10 nM),surviving fraction ([1]; 50 nM),surviving fraction ([1]; 100 nM),surviving fraction ([1]; 500 nM),surviving fraction ([1]; 1000 nM),surviving fraction (ABIRATERONE; 0.5 nM),surviving fraction (ABIRATERONE; 1 nM),surviving fraction (ABIRATERONE; 5 nM),surviving fraction (ABIRATERONE; 10 nM),surviving fraction (ABIRATERONE; 50 nM),surviving fraction (ABIRATERONE; 100 nM),surviving fraction (ABIRATERONE; 500 nM),surviving fraction (ABIRATERONE; 1000 nM)
DU4475 BREAST,0.875 ± 0.26,0.938 ± 0.15,0.819 ± 0.24,0.887 ± 0.2,0.713 ± 0.23,0.675 ± 0.29,0.91 ± 0.46,1.05 ± 0.35,0.872 ± 0.039,1.02 ± 0.19,0.991 ± 0.14,0.983 ± 0.12,0.989 ± 0.15,0.917 ± 0.32,0.998 ± 0.23,0.938 ± 0.34
H23 LUNG,0.966 ± 0.048,0.982 ± 0.013,0.972 ± 0.025,0.981 ± 0.03,0.99 ± 0.015,0.981 ± 0.025,0.894 ± 0.021,0.903 ± 0.054,1.07 ± 0.058,1.05 ± 0.062,1.06 ± 0.056,1.07 ± 0.049,1.1 ± 0.063,1.16 ± 0.032,1.17 ± 0.031,1.16 ± 0.072
HCC78 LUNG,0.942 ± 0.17,0.672 ± 0.3,0.745 ± 0.26,0.888 ± 0.17,0.774 ± 0.21,0.914 ± 0.089,0.707 ± 0.16,0.834 ± 0.2,0.94 ± 0.12,0.911 ± 0.058,1.09 ± 0.15,1.06 ± 0.23,1.12 ± 0.16,1.15 ± 0.25,0.936 ± 0.063,0.823 ± 0.24
HCC202 BREAST,1.32 ± 0.046,1.04 ± 0.17,1.16 ± 0.22,1.38 ± 0.23,1.4 ± 0.19,1.23 ± 0.057,1.35 ± 0.36,1.08 ± 0.062,1.062 ± 0.0076,1.28 ± 0.2,1.16 ± 0.15,1.32 ± 0.44,1.27 ± 0.073,1.23 ± 0.031,0.991 ± 0.13,0.86 ± 0.28
HCC1395 BREAST,1.15 ± 0.067,1.06 ± 0.14,1.25 ± 0.057,1.16 ± 0.1,1.216 ± 0.0056,1.12 ± 0.21,0.973 ± 0.13,1.1 ± 0.16,1.07 ± 0.11,1.07 ± 0.015,1.14 ± 0.059,1.13 ± 0.021,1.08 ± 0.12,1.11 ± 0.13,1.146 ± 0.0049,1.19 ± 0.047
HCC1806 BREAST,0.959 ± 0.2,0.993 ± 0.095,1.13 ± 0.043,1.04 ± 0.089,1.02 ± 0.11,1.21 ± 0.1,0.982 ± 0.078,0.885 ± 0.12,1.12 ± 0.11,1.08 ± 0.17,1.19 ± 0.024,1.08 ± 0.021,1.19 ± 0.051,1.2 ± 0.11,1.05 ± 0.085,0.953 ± 0.12
HCC1954 BREAST,0.868 ± 0.014,0.837 ± 0.18,0.999 ± 0.22,0.932 ± 0.18,0.92 ± 0.028,0.896 ± 0.013,0.764 ± 0.065,0.921 ± 0.085,0.838 ± 0.082,1.01 ± 0.13,1.05 ± 0.088,1.13 ± 0.12,1.09 ± 0.23,1.12 ± 0.041,1.08 ± 0.086,1.02 ± 0.014
HCT15 LARGE INTESTINE,0.987 ± 0.032,0.972 ± 0.011,0.944 ± 0.021,0.986 ± 0.011,1.05 ± 0.043,1.05 ± 0.031,1.06 ± 0.018,1.06 ± 0.03,1.08 ± 0.027,1.12 ± 0.024,1.1 ± 0.054,1.1 ± 0.029,1.11 ± 0.026,1.1 ± 0.0051,1.11 ± 0.04,1.1 ± 0.036
HELA CERVIX,1 ± 0.096,0.998 ± 0.036,0.939 ± 0.059,0.953 ± 0.044,1.09 ± 0.033,1.04 ± 0.026,1.05 ± 0.037,1.1 ± 0.09,1.08 ± 0.068,1.07 ± 0.037,1.1 ± 0.032,1.03 ± 0.023,1.2 ± 0.048,1.2 ± 0.062,1.23 ± 0.074,1.15 ± 0.055
HOS BONE,1 ± 0.0066,0.9927 ± 0.0081,0.994 ± 0.023,0.997 ± 0.0046,1.047 ± 0.0078,1.037 ± 0.0023,1.02 ± 0.013,0.96 ± 0.018,1.03 ± 0.02,1.025 ± 0.0032,1.08 ± 0.029,1.02 ± 0.014,1.09 ± 0.019,1.095 ± 0.0072,1.08 ± 0.028,1.06 ± 0.025
HOSMNG BONE,1 ± 0.071,0.979 ± 0.11,0.992 ± 0.068,0.985 ± 0.07,1.04 ± 0.061,1.08 ± 0.08,1.01 ± 0.1,1.09 ± 0.038,0.985 ± 0.035,0.99 ± 0.049,1 ± 0.077,0.973 ± 0.039,1.08 ± 0.042,1.1 ± 0.087,1.05 ± 0.096,1.08 ± 0.014
HSSYII SYNOVIAL,0.918 ± 0.058,0.908 ± 0.022,0.905 ± 0.061,0.901 ± 0.022,0.937 ± 0.025,0.926 ± 0.027,0.926 ± 0.049,0.887 ± 0.039,0.989 ± 0.03,0.972 ± 0.034,0.937 ± 0.013,0.974 ± 0.027,0.983 ± 0.068,0.966 ± 0.023,0.962 ± 0.048,0.957 ± 0.042
HT1080 SOFT TISSUE,1.01 ± 0.04,0.993 ± 0.015,1.004 ± 0.0098,1.039 ± 0.002,0.965 ± 0.023,1.01 ± 0.036,0.997 ± 0.036,0.969 ± 0.011,1.01 ± 0.013,1.05 ± 0.015,1.03 ± 0.012,1.02 ± 0.017,1.01 ± 0.023,1.02 ± 0.02,1.04 ± 0.027,0.997 ± 0.019
HU09 BONE,1.06 ± 0.09,1.03 ± 0.11,1.09 ± 0.081,1.18 ± 0.22,1.25 ± 0.32,1 ± 0.072,0.915 ± 0.091,0.932 ± 0.064,1.02 ± 0.086,1.11 ± 0.048,1.17 ± 0.18,1.12 ± 0.14,1.21 ± 0.086,1.18 ± 0.13,1.03 ± 0.089,1.05 ± 0.12
HUO3N1 BONE,0.9853 ± 0.0075,0.999 ± 0.029,1.05 ± 0.057,1.03 ± 0.048,1.07 ± 0.021,1 ± 0.048,0.967 ± 0.038,0.868 ± 0.013,1.03 ± 0.019,1.0307 ± 0.00058,1.07 ± 0.049,1.11 ± 0.025,1.07 ± 0.035,1.11 ± 0.029,1.02 ± 0.012,0.995 ± 0.046
JIMT1 BREAST,0.975 ± 0.024,0.969 ± 0.034,0.973 ± 0.026,1.01 ± 0.013,1.07 ± 0.046,1.06 ± 0.02,1.06 ± 0.014,1.06 ± 0.0097,0.9997 ± 0.0033,0.965 ± 0.027,0.981 ± 0.02,0.962 ± 0.013,1.08 ± 0.047,1.08 ± 0.032,1.02 ± 0.042,0.929 ± 0.012
